Reference: patent US20080051413A1, “Nitrophenylpiperazine derivative of xanthine which relaxes tracheal airway and increases respiratory performance” (KAOHSIUNG MEDICAL UNIVERSITY, priority 2006, published 2008)

How the values were obtained:
[1] = test system: TNF-_-induced bronchoconstriction; assay: TNF-_-induced bronchoconstriction, intratracheal instillation; type: in vivo, guinea pig
Method: Animals: Male Dunkin Harley guinea pigs (350-450 g) were provide by the National Laboratory Animal Breeding and Research Center (Taipei, Taiwan) and housed under conditions of constant temperature and controlled illumination. Food and water were available and libitum. The study was approved by the Animal Care and Use Committee of the Kaohsiung Medical University.
Pulmonary Function: Guinea pegs (350-450 g) were anesthetized with pentobarbital (40 mg/kg i.p.) and maintained with further i.v. doses of 2 to 5 mg/kg when required according to methods previously described (Wu B N, Lin R J, Lo Y C, Shen K P, Wang C C, Lin Y T, and Chen I J (2004) KMUP-1, a xanthine derivative, induces relaxation of guinea-pig isolated trachea: the role of the epithelium, cyclic nucleotides and K^+ channels, Br J Pharmacol 142:1105-1114). The animal was tethered in a supine position, and the trachea was cannulated below the larynx with a short tracheal cannula via a tracheotomy. Tracheal pressure was measured by a catheter connected to the side arm of the tracheal cannula. The carotid artery and jugular vein were cannulated to monitor blood pressure and heart rate and for drug administration, respectively. Throughout the experiment, the body temperature of the guinea pig was maintained at 37_. Measurements of pulmonary cardiac function were carried out as previously described (Hsu T H, Lai Y L, and Kou Y R (1998) Acetylcholine and tachykinin receptor antagonists attenuate wood smoke-induced bronchoconstriction in Guinea pigs. Eur J Pharmacol 360:175-183). Total lung resistance (RL) and dynamic lung compliance (Cdyn) were measured on a breath-by-breath basis using a computer equipped with an A/D interface (DAS 1600; Buxco Electronics, Inc., Wilmington, N.C.) and software (version 1.5.7; Buxco Electronics, Inc.). Results obtained from the computer analysis were checked for accuracy by comparison with those calculated manually.
Animals were allowed to stabilize for 10 min following surgical manipulations before the test agent was administered. […]

[2] = test system: cultured guinea pig tracheal smooth muscle cells; assay: Expression of PKA and PKG (Western blot); type: cell-based
Method: Cell Culture of Tracheal Smooth Muscle: Guinea pigs (350-450 g) were injected i.p. with a lethal dose of pentobarbital. The tracheas were excised and cut longitudinally through the cartilage. Using a dissecting microscope, TSM strips were dissected from the surrounding parentchyma. The epithelium was removed from the luminal surface, and bands of TSM were gently separated from the underlying connective tissue. Then TSM strips were chopped into small sections (1 mm^3) and incubated in Hanks' balanced salt solution (138 mM NaCl, 4 mM NaHCO3, 5 mM KCl, 0.3 mM KH2PO4, 0.3 mM Na2HPO4, and 1.0 mM glucose) with 0.05% elastase type IV and 0.2% collagenase type IV (Invitrogen, Carlsbad, Calif.) for 30 min at 37_ with gentle shaking. The solution of dissociated smooth muscle cells was centrifuged (6 min at 500 g), and the pellet was resuspended in 1:1 Dulbecco's modified Eagle's medium/Ham's F-12 medium supplemented with 10% fetal bovine serum, 0.244% NaHCO3, and 1% penicillin/streptomycin. Cells were cultured in 25-cm^2 flasks at 37_ in humidified air containing 5% CO2. Confluent cells were detached with 0.25% trypsin-0.02% EDTA at 37_and then subcultured to establish secondary cultures. Cultures were maintained for no more than four passages. They were identified as smooth muscle cells by the typical hill-and-valley appearance, and cellular homogeneity was further confirmed by the presence of smooth muscle specific _-myosin and _-actin immunoreactivity. Indirect immunofluorescence staining for a variety of antigens was carried out by first plating the cells on chamber slides, fixing the cells in 3.7% formaldehyde-phosphate-buffered saline for 10 min, and permeabilizing the cells with phosphate-buffered saline and 0.1% Triton X-100. Cells were then stained with either a mouse monoclonal antibody directed against the amino-terminal 10 amino acids of _-smooth muscle actin or _-myosin (Roche Diagnostics, Indianapolis, Ind.). All cells were stained with fluorescein-labeled goat anti-mouse IgG antibody (Roche Diagnostics).
Expression of PKA and PKG: The expression of PKA and PKG was determined by Western blot as previously described by Wu et al. and Murthy et al. (Wu B N, Lin R J, Lo Y C, Shen K P, Wang C C, Lin Y T, and Chen I J (2004) KMUP-1, a xanthine derivatives, induces relaxation of guinea-pig isolated trachea: the role of the epithelium, cyclic nucleotides and K^+ channels. Br J Pharmacol 142:1105-1114; Murthy K S, Zhou H, and Makhlouf G M (2002) PKA-dependent activation of PDE3A and PDE4 and inhibition of adenylyl cyclase V/VI in smooth muscle. Am J Physiol 282:C508-C517). Guinea pig TSMCs were incubated with KMUP-3 for 30 min. Each of the cell lysates, each containing 1 _g of cellular protein, was electrophoresed in 7.5% SDS-polyacrylamide gel electrophoresis and then transferred to polyvinylidene diflouride membrane (Millipore Corporation, Billerica, Mass.). The membrane was stained with Ponceau S to verify the integrity of the transferred proteins and to monitor the unbiased transfer of all protein samples. The membrane was then washed with 25 ml of TBS (100 mM NaCl, 0.1% and 10 mM Tris-HCl, pH 7.5) for 5 min at room temperature and incubated in 25 ml of blocking buffer (TBS plus 0.1% Tween 20 and 5% nonfat milk) overnight at 4_. In the measurement of protein, the membrane was incubated with appropriate PKARI or PKA1—1— primary antibody (diluted 1:250) in 2 ml of blocking buffer for 1 h at room temperature, washed three times for 5 min each with 15 ml of Tris-buffered saline/Tween 20 (TBS plus 0.1% Tween 20), incubated with horseradish peroxidase-conjugated secondary antibody (1:10,000) in 15 ml of blocking buffer with gentle agitation for 1 h at room temperature, and finally washed three times for 5 min each time with 15 ml of Tris-buffered saline/Tween 20. The membrane was then subjected to enhanced chemiluminescence (GE Healthcare) for the detection of the specific antigen.

[3] = 0.5, 1.0, 2.0 mg/kg intratracheal, 15 min prior to TNF-_ (0.01 mg/kg)

Cn1c(=O)c2c(ncn2CCN2CCN(c3ccc([N+](=O)[O-])cc3)CC2)n(C)c1=O [KMUP-3]
effect on Cdyn in TNF-_-induced bronchocontraction (FIG. 2) [1, 3]: increasing Cdyn
effect on RL in TNF-_-induced bronchocontraction (FIG. 2) [1, 3]: decreasing RL
Blood pressure and heart rate ([1]; intratracheal instillation, during recording of lung function): not significantly changed
expression of PKA1—1— (FIG. 7(B)) ([2]; 1 _M, 30 min): increased the expression of PKA1—1—
expression of immunoreactive PKARI protein (FIG. 7(A)) ([2]; 1 _M, 30 min): increased the expression of PKARI
PKG protein after ODQ pretreatment ([2]; ODQ (10_M) 30 min prior to compound (1 _M)): significantly reduced
PKA protein expression after ODQ pretreatment ([2]; ODQ (10 _M) 30 min prior to compound, unpublished data): did not significantly affect
expression of PKARI after SQ 22536 pretreatment ([2]; SQ 22536 (100 _M) 30 min prior to compound (1 _M)): attenuated
